Measured values from patent publication US20240174603A1 (Rappta Therapeutics Oy, priority 2021, published 2024).

What follows are compounds tested on LNCaP cells (assay: LNCaP cell viability assay (MTS)). Conditions: Homo sapiens, LNCaP cell line, 48 hours.
Assay type: cell-based
Outline: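 GI50 derived by nonlinear four-parameter curve fitting (bottom fixed at zero) of MTS viability data. Prostate LNCaP cells seeded at 5000/well were given compound doses from 1 to 80 µM one day after plating and assayed after 48 h of exposure.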

Structure (SMILES) | GI50 [µM]
CN(C)CC(NS(=O)(=O)c1ccc(OC2CC2)cc1)c1ccc(Cl)c(Cl)c1 (stereo not drawn) [Compound 154, 4-cyclopropoxy-N-(1-(3,4-dichlorophenyl)-2-(dimethylamino)ethyl)benzenesulfonamide] | 53.8
CN(C)CC(NS(=O)(=O)c1ccc(OC(F)(F)F)nc1)c1ccc(Cl)c(Cl)c1 (stereo not drawn) [Compound 157, N-(1-(3,4-dichlorophenyl)-2-(dimethylamino)ethyl)-6-(trifluoromethoxy)pyridine-3-sulfonamide] | 17.7

Same assay, conditions: Homo sapiens, LNCaP, 48 h, LNCaP cell line

GI50 [µM] | Structure (SMILES)
24.9 | CN=S(=O)(NC(CN(C)C)c1ccc(Cl)c(Cl)c1)c1ccc(OC(F)(F)F)cc1 (stereo not drawn) [Compound 126, N-(1-(3,4-dichlorophenyl)-2-(dimethylamino)ethyl)-N′-methyl-4-(trifluoromethoxy)benzenesulfonimidamide]
21.1 | CN(C)CC(NS(=O)(=O)c1cccc(OC(F)(F)F)c1)c1ccc(Cl)c(Cl)c1 (stereo not drawn) [Compound 128, N-(1-(3,4-dichlorophenyl)-2-(dimethylamino)ethyl)-3-(trifluoromethoxy)benzenesulfonamide]
69.9 | CN(C)CC(NS(=O)(=O)c1cccc(F)c1)c1ccc(Cl)c(Cl)c1 (stereo not drawn) [Compound 129, N-(1-(3,4-dichlorophenyl)-2-(dimethylamino)ethyl)-3-fluorobenzenesulfonamide]
62.4 | CN(C)CC(NS(=O)(=O)c1ccc(F)cc1)c1ccc(Cl)c(Cl)c1 (stereo not drawn) [Compound 130, N-(1-(3,4-dichlorophenyl)-2-(dimethylamino)ethyl)-4-fluorobenzenesulfonamide]
40.5 | Cc1cccc(S(=O)(=O)NC(CN(C)C)c2ccc(Cl)c(Cl)c2)c1 (stereo not drawn) [Compound 132, N-(1-(3,4-dichlorophenyl)-2-(dimethylamino)ethyl)-3-methylbenzenesulfonamide]
51.8 | Cc1ccc(S(=O)(=O)NC(CN(C)C)c2ccc(Cl)c(Cl)c2)cc1 (stereo not drawn) [Compound 133, N-(1-(3,4-dichlorophenyl)-2-(dimethylamino)ethyl)-4-methylbenzenesulfonamide]
75.6 | CN(C)CC(NS(=O)(=O)c1cc(F)cc(F)c1)c1ccc(Cl)c(Cl)c1 (stereo not drawn) [Compound 134, N-(1-(3,4-dichlorophenyl)-2-(dimethylamino)ethyl)-3,5-difluorobenzenesulfonamide]
10.2 | CN(C)CC(NS(=O)(=O)c1ccc(Oc2ccc(C(F)(F)F)cc2)cc1)c1ccc(Cl)c(Cl)c1 (stereo not drawn) [Compound 139, N-(1-(3,4-dichlorophenyl)-2-(dimethylamino)ethyl)-4-(4-(trifluoromethyl)phenoxy)benzenesulfonamide]
19.5 | CN(C)CC(NS(=O)(=O)c1ccc(OC(F)(F)F)cc1)c1ccc(Cl)c(Cl)c1 (stereo not drawn) [Compound 147, N-(1-(3,4-dichlorophenyl)-2-(dimethylamino)ethyl)-4-(trifluoromethoxy)benzenesulfonamide]
23.6 | CN(C)CC(NS(=O)(=O)c1ccc(OC(F)(F)F)cc1Cl)c1ccc(Cl)c(Cl)c1 (stereo not drawn) [Compound 151, 2-chloro-N-(1-(3,4-dichlorophenyl)-2-(dimethylamino)ethyl)-4-(trifluoromethoxy)benzenesulfonamide]
12.1 | CN(C)CC(NS(=O)(=O)c1ccc(OC(F)(F)F)c(Cl)c1)c1ccc(Cl)c(Cl)c1 (stereo not drawn) [Compound 152, 3-chloro-N-(1-(3,4-dichlorophenyl)-2-(dimethylamino)ethyl)-4-(trifluoromethoxy)benzenesulfonamide]
45.7 | CN(C)CC(NS(=O)(=O)c1ccc(OC(F)F)cc1)c1ccc(Cl)c(Cl)c1 (stereo not drawn) [Compound 153, N-(1-(3,4-dichlorophenyl)-2-(dimethylamino)ethyl)-4-(difluoromethoxy)benzenesulfonamide]
21.3 | CN(C)CC(NS(=O)(=O)c1ccc(OC(F)(F)F)cc1N)c1ccc(Cl)c(Cl)c1 (stereo not drawn) [Compound 155, 2-amino-N-(1-(3,4-dichlorophenyl)-2-(dimethylamino)ethyl)-4-(trifluoromethoxy)benzenesulfonamide]
24.9 | CN(C)CC(NS(=O)(=O)c1ccc2c(c1)OC(F)(F)O2)c1ccc(Cl)c(Cl)c1 (stereo not drawn) [Compound 156, N-(1-(3,4-dichlorophenyl)-2-(dimethylamino)ethyl)-2,2-difluorobenzo[d][1,3]dioxole-5-sulfonamide]
58.5 | CN(C)CC(NS(=O)(=O)c1ccc(Cl)cc1F)c1ccc(Cl)c(Cl)c1 (stereo not drawn) [Compound 160, 4-chloro-N-(1-(3,4-dichlorophenyl)-2-(dimethylamino)ethyl)-2-fluorobenzenesulfonamide]
25.4 | CN(C)CC(NS(=O)(=O)c1ccc(C(F)(F)F)cc1)c1ccc(Cl)c(Cl)c1 (stereo not drawn) [Compound 161, N-(1-(3,4-dichlorophenyl)-2-(dimethylamino)ethyl)-4-(trifluoromethyl)benzenesulfonamide]
52.7 | CN(C)CC(NS(=O)(=O)c1cccc(C(F)(F)F)c1)c1ccc(Cl)c(Cl)c1 (stereo not drawn) [Compound 162, N-(1-(3,4-dichlorophenyl)-2-(dimethylamino)ethyl)-3-(trifluoromethyl)benzenesulfonamide]
46 | CN(C)CC(NS(=O)(=O)c1cccc(Cl)c1)c1ccc(Cl)c(Cl)c1 (stereo not drawn) [Compound 163, 3-chloro-N-(1-(3,4-dichlorophenyl)-2-(dimethylamino)ethyl)benzenesulfonamide]
28.2 | CN(C)CC(NS(=O)(=O)c1ccc(Cl)cc1)c1ccc(Cl)c(Cl)c1 (stereo not drawn) [Compound 164, 4-chloro-N-(1-(3,4-dichlorophenyl)-2-(dimethylamino)ethyl)benzenesulfonamide]
42.4 | CN(C)CC(NS(=O)(=O)c1ccc(OC(F)(F)F)cc1)c1ccc(F)c(Cl)c1 (stereo not drawn) [Compound 167, N-(1-(3-chloro-4-fluorophenyl)-2-(dimethylamino)ethyl)-4-(trifluoromethoxy)benzenesulfonamide]
24.7 | CN(C)CC(NS(=O)(=O)c1ccc(OC(F)(F)F)cc1)c1ccc(Cl)c(F)c1 (stereo not drawn) [Compound 168, N-(1-(4-chloro-3-fluorophenyl)-2-(dimethylamino)ethyl)-4-(trifluoromethoxy)benzenesulfonamide]
3.23 | CN(C)CC(NS(=O)(=O)c1ccc(OC(F)(F)F)c([N+](=O)[O-])c1)c1ccc(Cl)c(Cl)c1 (stereo not drawn) [Compound 175, N-(1-(3,4-dichlorophenyl)-2-(dimethylamino)ethyl)-3-nitro-4-(trifluoromethoxy)benzenesulfonamide]

Continued, compound first:

Structure (SMILES) | GI50 [µM]
CN(C)CC(NS(=O)(=O)c1ccc(OC(F)(F)F)cc1)c1ccc(Cl)cc1 (stereo not drawn) [Compound 125, N-(1-(4-chlorophenyl)-2-(dimethylamino)ethyl)-4-(trifluoromethoxy)benzenesulfonamide] | 57
CNS(=O)(=NC(CN(C)C)c1ccc(Cl)c(Cl)c1)c1ccc(OC(F)(F)F)cc1 (stereo not drawn) [Compound 127, N′-(1-(3,4-dichlorophenyl)-2-(dimethylamino)ethyl)-N-methyl-4-(trifluoromethoxy)benzenesulfonimidamide] | 51.9
Cc1ccccc1S(=O)(=O)NC(CN(C)C)c1ccc(Cl)c(Cl)c1 (stereo not drawn) [Compound 131, N-(1-(3,4-dichlorophenyl)-2-(dimethylamino)ethyl)-2-methylbenzenesulfonamide] | 49
CN(C)CC(NS(=O)(=O)C1CCCCC1)c1ccc(Cl)c(Cl)c1 (stereo not drawn) [Compound 135, N-(1-(3,4-dichlorophenyl)-2-(dimethylamino)ethyl)cyclohexanesulfonamide] | 57.3
CN(C)CC(NS(=O)(=O)CCc1ccccc1)c1ccc(Cl)c(Cl)c1 (stereo not drawn) [Compound 136, N-(1-(3,4-dichlorophenyl)-2-(dimethylamino)ethyl)-2-phenylethane-1-sulfonamide] | 24.3
CCCc1ccc(S(=O)(=O)NC(CN(C)C)c2ccc(Cl)c(Cl)c2)cc1 (stereo not drawn) [Compound 137, N-(1-(3,4-dichlorophenyl)-2-(dimethylamino)ethyl)-4-propylbenzenesulfonamide] | 12.3
CN(C)CC(NS(=O)(=O)c1ccc(Oc2ccccc2)cc1)c1ccc(Cl)c(Cl)c1 (stereo not drawn) [Compound 138, N-(1-(3,4-dichlorophenyl)-2-(dimethylamino)ethyl)-4-phenoxybenzenesulfonamide] | 10.5
CN(C)CC(NS(=O)(=O)c1ccc(-c2ccccc2)cc1)c1ccc(Cl)c(Cl)c1 (stereo not drawn) [Compound 143, N-(1-(3,4-dichlorophenyl)-2-(dimethylamino)ethyl)-[1,1′-biphenyl]-4-sulfonamide] | 11.2
CN(C)CC(NS(=O)(=O)c1cccc(-c2ccccc2)c1)c1ccc(Cl)c(Cl)c1 (stereo not drawn) [Compound 144, N-(1-(3,4-dichlorophenyl)-2-(dimethylamino)ethyl)-[1,1′-biphenyl]-3-sulfonamide] | 14.4
CN(C)CC(NS(=O)(=O)c1cccc2ccccc12)c1ccc(Cl)c(Cl)c1 (stereo not drawn) [Compound 145, N-(1-(3,4-dichlorophenyl)-2-(dimethylamino)ethyl)naphthalene-1-sulfonamide] | 21.7
CN(C)CC(NS(=O)(=O)c1ccc2ccccc2c1)c1ccc(Cl)c(Cl)c1 (stereo not drawn) [Compound 146, N-(1-(3,4-dichlorophenyl)-2-(dimethylamino)ethyl)naphthalene-2-sulfonamide] | 23.8
Cc1ccccc1C(CN(C)C)NS(=O)(=O)c1ccc(OC(F)(F)F)cc1 (stereo not drawn) [Compound 150, N-(2-(dimethylamino)-1-(o-tolyl)ethyl)-4-(trifluoromethoxy)benzenesulfonamide] | 59.6
CN(C)CC(NS(=O)(=O)c1ccc(OC(F)(F)F)cc1)c1cccc(Cl)c1 (stereo not drawn) [Compound 166, N-(1-(3-chlorophenyl)-2-(dimethylamino)ethyl)-4-(trifluoromethoxy)benzenesulfonamide] | 44.5
O=S(=O)(NC(CN1CCOCC1)c1ccc(Cl)c(Cl)c1)c1ccc(OC(F)(F)F)cc1 (stereo not drawn) [Compound 169, N-(1-(3,4-dichlorophenyl)-2-morpholinoethyl)-4-(trifluoromethoxy)benzenesulfonamide] | 53.7
CN(C)CC(NS(=O)(=O)/C=C/c1ccccc1)c1ccc(Cl)c(Cl)c1 (stereo not drawn) [Compound 174, (E)-N-(1-(3,4-dichlorophenyl)-2-(dimethylamino)ethyl)-2-phenylethene-1-sulfonamide] | 30.9
